In brackets after ≈: the same amount, converted by molar mass.
Experiments:
fMet-Leu-Phe receptor = target: T1, fMet-Leu-Phe receptor (Homo sapiens, UniProt P21462); test: Antagonist activity at human recombinant FPR1 in expressed in HEK293 cells assessed as inhibition of FMLP-stimulated intracellular calcium mobilisation after 1 hr by FLIPR assay; assay type: functional, cell-based
T1 sequence (P21462 whole entry): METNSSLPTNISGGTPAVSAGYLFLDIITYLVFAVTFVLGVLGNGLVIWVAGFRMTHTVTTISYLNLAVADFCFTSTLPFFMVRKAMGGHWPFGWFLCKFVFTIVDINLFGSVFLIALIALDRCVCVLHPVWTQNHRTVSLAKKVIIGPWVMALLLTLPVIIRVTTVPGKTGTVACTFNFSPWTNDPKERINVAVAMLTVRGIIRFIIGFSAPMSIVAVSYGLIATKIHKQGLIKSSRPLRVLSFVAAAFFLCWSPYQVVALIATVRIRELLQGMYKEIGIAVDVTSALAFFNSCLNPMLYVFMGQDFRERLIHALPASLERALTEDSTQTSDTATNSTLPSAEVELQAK

[1] = Intrinsic clearance in Sprague-Dawley rat hepatocytes assessed per 10^6 cells measured after 90 mins
[2] = target: T2, fMet-Leu-Phe receptor (Homo sapiens) (UniProt P21462); test: Antagonist activity at human recombinant FPR1 in expressed in HEK293 cells assessed as inhibition of FMLP-stimulated intracellular calcium mobilisation at 30 uM after 1 hr by FLIPR assay; assay type: functional, cell-based
T2 sequence (whole entry): T1 sequence (P21462 whole entry)

[3] = Volume of distribution at steady state in Sprague-Dawley rat at 2 mg/kg, iv; assay type: ADME, organism-based; design: dose 2 mg/kg, route intravenous; settings: in vivo, read-out: Vdss
[4] = target: T3, Solute carrier organic anion transporter family member 1B1 (Homo sapiens, UniProt Q9Y6L6); test: Inhibition of OATP1B1 transporter
T3 sequence (Q9Y6L6 whole entry): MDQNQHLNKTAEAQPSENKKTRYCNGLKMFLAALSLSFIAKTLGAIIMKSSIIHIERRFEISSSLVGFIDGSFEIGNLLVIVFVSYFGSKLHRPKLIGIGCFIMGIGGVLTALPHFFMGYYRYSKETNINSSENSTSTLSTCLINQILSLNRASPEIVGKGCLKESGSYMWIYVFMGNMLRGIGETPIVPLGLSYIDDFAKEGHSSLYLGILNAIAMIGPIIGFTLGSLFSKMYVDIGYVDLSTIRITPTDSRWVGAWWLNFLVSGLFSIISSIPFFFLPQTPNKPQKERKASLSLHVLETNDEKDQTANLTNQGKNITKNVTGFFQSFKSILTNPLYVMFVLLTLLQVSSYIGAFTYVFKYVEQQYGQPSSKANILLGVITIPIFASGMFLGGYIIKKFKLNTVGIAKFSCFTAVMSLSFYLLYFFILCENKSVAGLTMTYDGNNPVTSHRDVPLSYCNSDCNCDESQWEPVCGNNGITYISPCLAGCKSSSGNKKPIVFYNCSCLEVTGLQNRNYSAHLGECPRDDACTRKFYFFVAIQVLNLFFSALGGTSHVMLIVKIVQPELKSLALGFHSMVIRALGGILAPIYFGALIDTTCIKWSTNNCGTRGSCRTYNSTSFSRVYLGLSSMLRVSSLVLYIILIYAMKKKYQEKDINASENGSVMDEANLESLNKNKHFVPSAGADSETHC

[5] = […] pKa of the compound; assay type: physicochemical
[6] = Ratio of drug level in blood to plasma in Sprague-Dawley rat; assay type: ADME
[7] = Intrinsic clearance in human liver microsomes measured after 45 mins post NADPH addition
[8] = Oral bioavailability in Sprague-Dawley rat at 2 mg/kg; assay type: ADME, organism-based; settings: in vivo
Liver = test: Intrinsic clearance in rat liver microsomes assessed as media loss of parent compound per million cells
[9] = Clearance in Sprague-Dawley rat at 2 mg/kg, iv; settings: in vivo
[10] = Intrinsic clearance in human hepatocytes assessed per 10^6 cells measured after 90 mins
[11] = Half life in Sprague-Dawley rat at 2 mg/kg, iv; settings: in vivo
[12] = Thermodynamic solubility of compound by shake-flask technique; assay type: physicochemical; settings: read-out: Therm_solubility
Plasma [13] = test: (§1) Fraction unbound in Sprague-Dawley rat plasma; assay type: ADME, cell-free
Plasma [14] = test: Fraction unbound in human plasma; assay type: ADME, cell-free
[15] = as §1; assay type: ADME, cell-free; settings: Sprague-Dawley

IC50 (fMet-Leu-Phe receptor) [µM] | hepatocyte CLint at […] [1] [µL/min/1e6 cells] | CLH (Liver) [µL/min] | SMILES | other results
0.316 | 10 | – | COCCC(C)n1nc(C)c(C(=O)N[C@@H](C)C(C)(C)C)c1NS(=O)(=O)c1ccc(C)cc1 (stereo not given in full) | –
10 | – | – | Cc1ccc(S(=O)(=O)Nc2c(C(=O)N[C@@H](C)C(C)(C)C)c(C)nn2C2CCS(=O)(=O)CC2)cc1 | –
0.0398 | – | – | Cc1ccc(S(=O)(=O)Nc2c(C(=O)N[C@@H](C)C(C)(C)C)c(C)nn2C2CCSCC2)cc1 | –
1.58 | 53 | – | Cc1ccc(S(=O)(=O)Nc2c(C(=O)N[C@@H](C)C(C)(C)C)c(C)nn2C(C)(C)C)cc1 | –
0.398 | – | – | CCC(CC)n1nc(C)c(C(=O)N[C@@H](C)C(C)(C)C)c1NS(=O)(=O)c1ccc(C)cc1 | –
1 | – | – | Cc1ccc(S(=O)(=O)Nc2c(C(=O)N[C@@H](C)C(C)(C)C)c(C)nn2C2CCOC2)cc1 (stereo not given in full) | –
– | – | – | CO[C@H]1CC[C@H](n2nc(C)c(C(=O)N[C@@H](C)C(C)(C)C)c2NS(=O)(=O)c2ccc(C)cc2)CC1 | inhibition [2]: < 30%
– | – | 412 | Cc1ccc(S(=O)(=O)Nc2c(C(=O)N[C@@H](C)C(C)(C)C)c(C)nn2-c2ccccc2)cc1 | Vd [3]: 0.45 L/kg; IC50 [4]: 7.94 µM; pKa [5]: 3.9; blood plasma ratio [6]: 0.7; microsomal CLint at 0.75 h [7]: 40 µL/min/mg; bioavailability [8]: 19%; clearance [9]: 2.52 L/h/kg; hepatocyte CLint at […] [10]: 7 µL/min/1e6 cells; half-life [11]: 15 min; solubility thermodynamic [12]: 1030 µM (≈ 468 µg/mL); Fu (Plasma [13]): 1.1%; Fu (Plasma [14]): 4.2%
3.16 | 74 | 18 | Cc1ccc(S(=O)(=O)Nc2c(C(=O)N[C@@H](C)C(C)(C)C)c(C)nn2CC(F)(F)F)cc1 | –
1 | < 6 | 7.8 | Cc1ccc(S(=O)(=O)Nc2c(C(=O)N[C@@H](C)C(C)(C)C)c(C)nn2C(C)C)cc1 | clearance [9]: 0.24 L/h/kg; fraction unbound [15]: 0.04

Reference: ChEMBL document CHEMBL1932964, “Lead optimisation of pyrazoles as novel FPR1 antagonists” (Bioorg Med Chem Lett, 2012)
